The record followed here is ChEMBL document CHEMBL1687877, “Tripeptide motifs in biology: targets for peptidomimetic design” (J Med Chem, 2011).

Where a SMILES comes first, the peptide text is derived from it. Bridges are numbered along the chain shown (N, C = ends).

A short description of experiment [1]: Inhibition of bacterial DNA polymerase beta association with DNA polymerase alpha.
Experiment [2] in a line: Inhibition of bacterial DNA polymerase beta association with DNA polymerase delta.
Experiment [3] is described as follows: Induction of neurite outgrowth in rat CGN cells at 7.3 uM. The experiment is classed as functional.
A further experiment concerns the target T1, Cadherin-2 (Homo sapiens, UniProt P19022).
T1 sequence (P19022 whole entry): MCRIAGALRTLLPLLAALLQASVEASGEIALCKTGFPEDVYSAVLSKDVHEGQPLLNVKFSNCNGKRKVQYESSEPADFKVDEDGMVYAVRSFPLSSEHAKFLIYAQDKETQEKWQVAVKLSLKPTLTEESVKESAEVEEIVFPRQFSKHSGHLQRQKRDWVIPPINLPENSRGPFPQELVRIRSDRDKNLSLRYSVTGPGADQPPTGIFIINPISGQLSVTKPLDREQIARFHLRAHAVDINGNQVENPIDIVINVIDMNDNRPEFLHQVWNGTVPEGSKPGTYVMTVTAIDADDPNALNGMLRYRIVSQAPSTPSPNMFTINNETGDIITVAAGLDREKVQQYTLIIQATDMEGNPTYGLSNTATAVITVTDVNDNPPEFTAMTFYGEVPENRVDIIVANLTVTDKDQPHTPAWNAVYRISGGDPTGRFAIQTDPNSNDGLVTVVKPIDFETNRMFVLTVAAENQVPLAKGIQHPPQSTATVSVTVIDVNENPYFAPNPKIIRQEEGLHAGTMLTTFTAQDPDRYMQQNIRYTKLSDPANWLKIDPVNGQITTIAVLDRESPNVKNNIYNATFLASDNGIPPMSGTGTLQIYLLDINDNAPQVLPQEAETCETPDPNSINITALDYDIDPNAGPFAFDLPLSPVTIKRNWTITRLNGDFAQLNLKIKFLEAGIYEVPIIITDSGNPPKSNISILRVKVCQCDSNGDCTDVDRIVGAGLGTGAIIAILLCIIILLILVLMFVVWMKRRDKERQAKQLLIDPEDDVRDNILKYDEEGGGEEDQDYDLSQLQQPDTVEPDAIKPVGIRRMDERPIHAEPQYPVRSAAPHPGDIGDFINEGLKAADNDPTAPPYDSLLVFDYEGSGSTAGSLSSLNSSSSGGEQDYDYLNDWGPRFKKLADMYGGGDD
As to the kind of experiment: Antagonist activity at N-cadherin. The experiment is classed as functional.

Experiment [4] concerns the target D(2) dopamine receptor (Homo sapiens) (UniProt P14416). Nature of the experiment: Agonist activity at human dopamine D2 receptor at 10 nM. The experiment is classed as functional.

Chain of D(2) dopamine receptor (Homo sapiens) (P14416 whole entry): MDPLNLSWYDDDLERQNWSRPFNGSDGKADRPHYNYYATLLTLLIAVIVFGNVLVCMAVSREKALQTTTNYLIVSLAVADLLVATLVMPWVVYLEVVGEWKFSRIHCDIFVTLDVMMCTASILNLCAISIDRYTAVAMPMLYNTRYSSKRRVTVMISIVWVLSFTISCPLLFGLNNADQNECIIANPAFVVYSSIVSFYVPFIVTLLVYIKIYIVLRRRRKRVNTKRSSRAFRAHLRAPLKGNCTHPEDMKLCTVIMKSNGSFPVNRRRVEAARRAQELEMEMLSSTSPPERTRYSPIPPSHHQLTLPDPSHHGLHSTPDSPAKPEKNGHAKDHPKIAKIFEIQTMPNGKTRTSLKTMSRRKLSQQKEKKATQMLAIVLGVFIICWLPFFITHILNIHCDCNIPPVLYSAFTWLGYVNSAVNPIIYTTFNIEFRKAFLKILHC

For the molecule `CCC/C(=N\OC/C(Cl)=C/c1ccc(Cl)cc1)C1C(=O)CC(C)(C)CC1=O`, the results for the IC50 in experiment [1] and in experiment [2] were 350 µM and 290 µM, respectively. As for `CC[C@H](C)[C@@H]1NC(=O)[C@H](CC(=O)O)NC(=O)[C@H](C(C)C)NC(=O)[C@H](C)NC(=O)[C@H](Cc2cnc[nH]2)NC(=O)CNC(=O)[C@H](CC(N)=O)NC(=O)[C@H]([C@@H](C)CC)NC(=O)[C@H](CC(=O)O)NC(=O)[C@H](C(C)C)NC(=O)[C@H](C)NC(=O)[C@H](Cc2cnc[nH]2)NC(=O)[C@@H](NC(C)=O)CSSC[C@@H](C(N)=O)NC1=O` (Ac-CHAVDINGHAVDIC-NH2; disulfide 1-14), the Activity in experiment [3] came to 70%. Regarding `CC(=O)N[C@H]1CSSC[C@@H](C(N)=O)NC(=O)[C@H](CC(=O)O)NC(=O)[C@H](C(C)C)NC(=O)[C@H](C)NC(=O)[C@H](Cc2cnc[nH]2)NC1=O` (Ac-CHAVDC-NH2; disulfide 1-6), on Cadherin-2, the IC50 (in general, the concentration that inhibits the measured activity by half) was found to be 5 µM. Regarding `CCC/C(=N\OCc1ccc(-c2ccccc2)cc1)C1C(=O)CC(C)(C2OCC(C)(C)CO2)OC1=O` (configuration not stated), the IC50 in experiment [1] stood at 270 µM; in experiment [2], 90 µM. The molecule `N[C@@H](Cc1ccccc1)C(=O)NC1C(=O)N(CC(=O)O)C[C@H]1CC(=O)O` (some centres not stated) yielded an Activity in experiment [4] of 146%.
